Experimental data taken from US6267968A, “MDP derivatives and conjugates having haematipoietic function stimulating activity, and compositions containing same” (Vacsyn S.A., priority 1995, dated 2001).

Legend:
[1] = tested on: circulating myelocytes (HSC); assay: Mobilization of HSC after combined oral treatment with AZT and Muradimetide (Example 4); format: in vivo, mice
Procedure: Table 3 below and FIG. 11 show the effect of an oral treatment of mice with Muradimetide before, at the same time as or after AZT administered at 50 mg per kg, on the number of circulating myelocytes tested 24 hours after 4 daily administrations.
The mean number of circulating myelocytes before the treatment lies between 3 and 15×10^4 cells per ml in the 5 groups.
The "P-value" was calculated by the Mann Whitney U Rank test.

circulating myelocytes = assay: Comparison of oral Muradimetide with MDPA after intravenous AZT, myelocyte count (Example 10); format: in vivo, female Swiss mice; conditions: AZT 40 mg per kg i.v. days 0-3; MDPA 25 mg per kg 4 hours before AZT
Procedure: In this experiment, female Swiss mice were treated intravenously with 40 mg per kg of AZT on days 0, 1, 2 and 3. Groups of 5 mice received on the same four days, and 4 hours before AZT, either physiological saline, or MDPA at a dose of 25 mg per kg or Muradimetide orally at a dose of 25 mg per kg. Myelocyte counts were carried out on days 0, 2, 3, 4 and 8. The asterisks above the histograms have the same meaning as in the previous diagrams.

[2] = tested on: circulating neutrophils, leukocytes, monocytes and myelocytes; assay: Comparison of Muradimetide and GM-CSF after intravenous AZT (Example 9); format: in vivo, female Swiss mice; conditions: AZT 40 mg per kg i.v. days 0-3
Procedure: FIGS. 4, 5, 6 and 7 show the effect of a treatment of mice with Muradimetide or with mGM-CSF on the changes in the circulating neutrophils, in the circulating leukocytes or in the circulating monocytes or in the circulating myelocytes, respectively, after an intravenous administration of AZT.
Female Swiss mice were treated intravenously with 40 mg per kg of AZT on days 0, 1, 2 and 3. The groups of mice (5 per group) receive, 4 hours before AZT, either physiological saline, or Muradimetide at 25 mg per kg or mGM-CSF at 125 μg per kg intravenously. Counts are done on days 0, 2, 3, 4 and 8. The asterisks above the histograms indicate that there is a significant difference in the count compared to the values obtained before the treatment on day 0.

[3] = Muradimetide 25 mg per kg or mGM-CSF 125 μg per kg i.v. 4 hours before

Cc1cn([C@H]2C[C@H](N=[N+]=[N-])[C@@H](CO)O2)c(=O)[nH]c1=O [AZT, 3'-azido-3'-deoxythymidine, reference compound]
effect on the mobilization of HSC (myelocyte count, FIG. 11) ([1]; MDM 25 mg/kg, AZT 50 mg/kg or mixture, oral, days 0-3 and 7-10 (2 weeks)): no effect
No. of circulating myelocytes ([1]; p.o., one compound alone at 0 h (AZT 50 mg/Kg or Muradimetide 25 mg/Kg), 24 hours after 4 daily administrations): 6 ± 8 × 10^4 /ml

CC(=O)N[C@H]1C(O)O[C@H](CO)[C@@H](O)[C@@H]1O[C@H](C)C(=O)N[C@@H](C)C(=O)N[C@H](CCC(=O)O)C(=O)O (stereo partly drawn) [MDPA, Nac--Mur--L--Ala--D--Glu]
antimyelotoxic effect and mobilization of HSC in the blood circulation (myelocyte count, FIG. 8) (circulating myelocytes): not occurring

B1: GM-CSF: recombinant mouse GM-CSF, lymphokine customarily used to stimulate myelocytes (protein, UniProt P01587 18-141, looked up)
Granulocyte-macrophage …: APTRSPITVTRPWKHVEAIKEALNLLDDMPVTLNEEVEVVSNEFSFKKLTCVQTRLKIFEQGLRGNFTKLKGALNMTASYYQTYCPPTPETDCETQVTTYADFIDSLKTFLTDIPFECKKPGQK
HSC in the blood (circulating myelocytes, FIG. 7) [2, 3]: does not do so
leukocyte and neutrophil counts [2, 3]: do not display an increase
number of monocytes ([2]; mGM-CSF 125 μg per kg i.v. 4 hours before): increase in the number of monocytes
